# Where two headings read alike, the source gives them in different places.
# Experiments:
# [1] = test system: mononucleotide repeat loci (mBat markers); type: in vivo, C57BL/6 mice
# [2] = test system: mtDNA (Δ-mtDNA4977 deletion); type: in vivo, C57BL/6 mice; details: old age paraquat-treated group, three mice
# Procedure: […] mice were housed and inbred at the University of Wisconsin, with an average life span ˜30 months. Four groups of three mice were included in the study: 5-month old mice (young control or YC); 5-month old mice treated with paraquat; 24-month old mice (old age); and 24-month old mice treated with paraquat. Paraquat-treated animals received a single intraperitoneal injection of 50 mg/kg body weight dissolved in PBS 24 hours after their last feeding. Each mouse was sacrificed by cervical dislocation.
# The entire liver from each mouse was dissected, washed with PBS, placed in a 1.5 ml Ependorf tube, snap frozen in liquid nitrogen, and stored at −80° C. DNA was prepared from the mouse liver tissue by using the DNA-IQ Tissue and Hair Extraction Kit (Promega Corporation, Madison, Wis.) and was quantified using the PicoGreen dsDNA Quantitative Kit (Molecular Probes, Eugene, Oregon) following manufacturers protocols.
# Based on the mouse mtDNA sequence, four fluorescence labeled primer pairs were designed to detect both wildtype sequences and mtDNA deletions. […]
# Separation and detection of amplified fragments was performed on an ABI PRISM® 3100 Genetic Analyzer following the manufacturer's protocol (Applied Biosystems, Foster City, Calif.). Data was analyzed with the GeneScan and Genotyper computer software packages (Applied Biosystems). […]
# [3] = test system: microsatellite markers in human fibroblast cell line #AG01522
# Procedure: human fibroblast cell line #AG01522 from Coriell Cell Repository were cultured in MEM Eagle-Earle BSS 2× concentration of essential and non-essential amino acids and vitamins with 2 mM L-glutamine, 10% fetal bovine serum, 0.5 Units/ml of penicillin, 0.5 μg/ml of streptomycin. Cell cultures were grown at 37° C. and 5% CO2 under sterile conditions and split at a ratio of 1:5 when cells were confluent by releasing cells with trypsin-EDTA treatment. […] Cells were pelleted and DNA extracted.
# Mutant alleles were identified by small-pool PCR as described in Example B above using primer pairs specific for microsatellite markers (Tables 2 and 7) including: (1) mononucleotide repeat markers (NR-21, NR-24, BAT-25, BAT-26 and MONO-27); (2) extended mononucleotide repeat markers (hBAT-51d, hBAT-52a, hBAT-53c, hBAT59a, hBAT-60a and hBAT-62); (3) tetranucleotide repeat markers on autosomal chromosomes (D7S3070, D7S3046, D7S1808, D10S1426 and D3S2432); (4) tri-, tetra- and penta-nucleotide repeats on the Y chromosome (DYS391, DYS389 I, DYS389 II, DYS438, DYS437, DYS19, DYS392, DYS393, DYS390, and DYS385); and (5) penta-nucleotide repeats Penta B, C, D, and E (Bacher, et al. 1999.
compound,measurement,setting,value
C[n+]1ccc(-c2cc[n+](C)cc2)cc1 [Paraquat],Mutation Freq,"[1]; mBat-24, Old w/Paraquat",0.000
same,# Mutants,"[1]; mBat-24, Old w/Paraquat, 318 alleles",0
same,Mutation Freq,"[1]; mBat-24, Young w/ Paraquat",0.002
same,# Mutants,"[1]; mBat-24, Young w/ Paraquat, 648 alleles",1
same,Mutation Freq,"[1]; mBat-26, Old w/Paraquat",0.000
same,# Mutants,"[1]; mBat-26, Old w/Paraquat, 340 alleles",0
same,Mutation Freq,"[1]; mBat-26, Young w/ Paraquat",0.000
same,# Mutants,"[1]; mBat-26, Young w/ Paraquat, 457 alleles",0
same,Mutation Freq,"[1]; mBat-30, Old w/Paraquat",0.000
same,# Mutants,"[1]; mBat-30, Old w/Paraquat, 344 alleles",0
same,Mutation Freq,"[1]; mBat-30, Young w/ Paraquat",0.000
same,# Mutants,"[1]; mBat-30, Young w/ Paraquat, 704 alleles",0
same,Mutation Freq,"[1]; mBat-37, Old w/Paraquat",0.000
same,# Mutants,"[1]; mBat-37, Old w/Paraquat, 306 alleles",0
same,Mutation Freq,"[1]; mBat-37, Young w/ Paraquat",0.001
same,# Mutants,"[1]; mBat-37, Young w/ Paraquat, 992 alleles",1
same,Mutation Freq,"[1]; mBat-49, Old w/Paraquat",0.000
same,# Mutants,"[1]; mBat-49, Old w/Paraquat, 194 alleles",0
same,Mutation Freq,"[1]; mBat-51a, Old w/Paraquat",0.000
same,# Mutants,"[1]; mBat-51a, Old w/Paraquat, 240 alleles",0
same,Mutation Freq,"[1]; mBat-51b, Old w/Paraquat",0.000
same,# Mutants,"[1]; mBat-51b, Old w/Paraquat, 186 alleles",0
same,Mutation Freq,"[1]; mBat-52, Old w/Paraquat",0.000
same,# Mutants,"[1]; mBat-52, Old w/Paraquat, 44 alleles",0
same,Mutation Freq,"[1]; mBat-59, Old w/Paraquat",0.013
same,# Mutants,"[1]; mBat-59, Old w/Paraquat, 448 alleles",6
same,Mutation Freq,"[1]; mBat-59, Young w/ Paraquat",0
same,# Mutants,"[1]; mBat-59, Young w/ Paraquat, 636 alleles",4
same,Mutation Freq,"[1]; mBat-61a, Old w/Paraquat",0.005
same,# Mutants,"[1]; mBat-61a, Old w/Paraquat, 428 alleles",2
same,Mutation Freq,"[1]; mBat-64, Old w/Paraquat",0.019
same,# Mutants,"[1]; mBat-64, Old w/Paraquat, 412 alleles",8
same,Mutation Freq,"[1]; mBat-64, Young w/ Paraquat",0
same,# Mutants,"[1]; mBat-64, Young w/ Paraquat, 443 alleles",1
same,Mutation Freq,"[1]; mBat-66, Old w/Paraquat",0.018
same,# Mutants,"[1]; mBat-66, Old w/Paraquat, 448 alleles",8
same,Mutation Freq,"[1]; mBat-66, Young w/ Paraquat",0
same,# Mutants,"[1]; mBat-66, Young w/ Paraquat, 592 alleles",3
same,Mutation Freq,"[1]; mBat-67, Old w/Paraquat",0.051
same,# Mutants,"[1]; mBat-67, Old w/Paraquat, 394 alleles",20
same,Mutation Freq,"[1]; mBat-67, Young w/ Paraquat",0
same,# Mutants,"[1]; mBat-67, Young w/ Paraquat, 334 alleles",1
same,"mutations in loci mBAT-24, mBAT-26, mBat-30, or mBAT-37","[1]; old paraquat-treated group, out of 1608 alleles",no mutations
same,"mutations in mononucleotide repeat alleles assayed, loci mBAT-59, mBAT-64, mBAT-66 or mBAT-67","[1]; paraquat-treated old age group, SP-PCR, (25/1649)",over 1.8%
same,Δ-mtDNA4977 detected (mice of group),[2],All three mice in the old age paraquat-treated group showed Δ-mtDNA4977
OO [hydrogen peroxide],"mutations in extended mononucleotide repeats, Y-STRs and A-rich pentanucleotide repeats","[3]; cells exposed to 0.1 to 1.2 mM hydrogen peroxide for 1 hour, 3 days recovery",Mutations were detected
same,"mutations in short mononucleotide repeat markers NR-21, NR-24, BAT-25, BAT-26 or MONO-27","[3]; cells exposed to hydrogen peroxide, 0/1,526 alleles",No mutations
